Assay results as given in patent US20250195556A1, “COMPOSITIONS, KITS, AND METHODS TO INDUCE ACQUIRED CYTORESISTANCE USING STRESS PROTEIN INDUCERS” (FRED HUTCHINSON CANCER RESEARCH CENTER, priority 2014, published 2025).
“And” between values parts separate entries of the source, which are not always exact repeats. Equal values may be shown once.

Legend:
[1] = Plasma LDH 4 hr after IV test agents (marker of liver, kidney, lung and heart injury); format: in vivo, mice; details: 4 hr IV
HO-1 [2] = assay: Renal cortical HO-1 mRNA and protein after IV N-Mgb, SnPP or both; format: in vivo, mice
Source text: (§1) Cytoresistance-inducing reagents. […] (#Mb0360; Sigma) was used as the primary cytoresistance-inducing agent. However, because myoglobin (Mgb) has an inherent nephrotoxic potential (particularly under conditions of volume depletion and aciduria), two approaches were used to mitigate Mgb's potential adverse effects. First, the Mgb was converted into a nitrited form by the addition of equimolar amount of sodium (Na) nitrite. In this regard, nitrite is an ambidentate molecule that directly binds 1:1 to myoglobin Fe either via its oxygen or nitrogen component. Cotton et al. Advanced inorganic chemistry. Hobocken, NJ: Wiley-Interscience, 1999:1355; Silaghi-Dumitrescu et al. Nitric Oxide 2014; 42 C: 32-9. […] Rassaf et al. Circ Res 2014; 114:1601-10; Totzeck et al. Circulation 2012; 126:325-34 [J Clin Invest 1992; 89:989-95]; Totzeck et al. PLOS One 2014; 22: e105951; Hendgen-Cotta et al. Proc Natl Acad Sci USA 2008; 105:10256-61.
(§2) Thirty-two mice were divided into 4 equal groups: (1) control mice; (2) mice treated with 1 mg of N-Mgb injection (as a bolus through the tail vein); (3) mice treated with […] of SnPP (via tail vein); and (4) mice treated with combined N-Mgb 1 SnPP. After either 4 hours (n=16) or 18 hours (n=16), the mice were deeply anesthetized with pentobarbital (50 mg/kg), the abdomen was opened through a midline abdominal incision, and the kidneys were removed. To determine potential effects on extrarenal organs, a liver lobe and the heart were also removed. The tissues were iced and then extracted for protein and RNA (RNeasy Plus Mini; Qiagen, Valencia, California) and subjected to enzyme linked immunosorbent assay (ELISA) and reverse transcriptase polymerase chain reaction (RT-PCR) for HO-1, haptoglobin, and IL-10 protein and messenger RNAs (mRNAs). Zager et al. J Am Soc Nephrol 2014; 25:998-1012; Zager et al. Am J Physiol 2012; 303: F139-48. As an assessment of renal function, control mice and the 18 hour after N-Mgb+SnPP-treated mice had blood urea nitrogen (BUN) and plasma creatinine levels measured. Additionally, transverse 10% formalin fixed kidney sections ([…]) were cut and stained with hematoxylin and eosin (H&E) and periodic acid Schiff (PAS) to further assess potential injury.

haptoglobin [3] = assay: Renal cortical haptoglobin mRNA and protein after IV N-Mgb, SnPP or both; format: in vivo, mice
Source text: as §1, §2

IL-10 [4] = assay: Renal cortical IL-10 mRNA and protein after IV N-Mgb, SnPP or both; format: in vivo, mice; details: for Kidney protein: IL-10: control 304
Source text: as §1, §2

HO-1 [5] = assay: Liver HO-1 mRNA and protein after IV N-Mgb, SnPP or both; format: in vivo, mice; details: for Liver mRNA: HO-1: control 1.1; for Liver protein: HO-1 protein: control 10.2
Procedure: as §2

haptoglobin [6] = assay: Liver haptoglobin mRNA and protein after IV N-Mgb, SnPP or both; format: in vivo, mice; parameters: Liver protein: Haptoglobin: unit not given beside the values; details: for Liver mRNA: Haptoglobin: control 0.5; for Liver protein: Haptoglobin: control 115.3
Procedure: as §2

IL-10 [7] = assay: Liver IL-10 mRNA and protein after IV N-Mgb, SnPP or both; format: in vivo, mice; details: for Liver mRNA: IL-10: control 0.06; for Liver protein: IL-10: control 314
Procedure: as §2

HO-1 [8] = assay: Cardiac HO-1 mRNA and protein after IV N-Mgb, SnPP or both; format: in vivo, mice; details: for Cardiac mRNA: HO-1: control 0.07
Procedure: as §2

haptoglobin [9] = assay: Cardiac haptoglobin mRNA and protein after IV N-Mgb, SnPP or both; format: in vivo, mice; details: for Cardiac mRNA: Haptoglobin: control 0.31; for Cardiac protein: Haptoglobin: control 15.6
Procedure: as §2

IL-10 [10] = assay: Cardiac IL-10 mRNA and protein after IV N-Mgb, SnPP or both; format: in vivo, mice; details: for Cardiac mRNA: IL-10: control 0.36
Procedure: as §2

Male CD-1 mice = assay: Maleate model of AKI (FeS, SnPP, FeS+SnPP); format: in vivo; details: 1 mg FeS or 1 μmole SnPP IV alone 18 hrs before maleate
Source text: Methods. Male CD-1 mice (25-40 grams) Charles River, Wilmington, MA) were used for all experiments. They were housed under standard vivarium conditions with free food and water access. All experiments were approved by the Fred Hutchinson Cancer Research Center IACUC in accordance with NIH guidelines.
Effects of Fe sucrose (FeS)/tin protoporphyrin (SnPP) on AKI severity. Maleate model of AKI. When injected into rodents, maleate undergoes relatively selective proximal tubule cell uptake via organic anion transporters. Once intracellular accumulation occurs, maleate is a preferred substrate for succinyl-CoA: 3-oxoacid CoA transferase. […] Ample levels of CoA are essential for fatty acid “activation”, allowing for their subsequent metabolism through the Krebs cycle, yielding ATP. In the absence of this process, proximal tubule ATP depletion and cell injury result. Additionally, maleate conjugates the sulfhydryl group of glutathione (GSH), culminating in GSH depletion and potential oxidant tubular stress.
The following experiment tested whether FeS, SnPP or combined FeS+SnPP can mitigate this form of acute kidney injury (AKI). […] The severity of kidney injury was assessed by determining plasma blood urea nitrogen (BUN) and plasma creatinine (PCr) concentrations.

[11] = Berglund et al. Hepatology 1988; cited from earlier work
[12] = test system: cultured proximal tubule (HK-2) cells; details: Zager & Burkhart, Kidney Int 1997; cited from earlier work

C=Cc1c2[n-]c(c1C)/C=c1\[n-]/c(c(C)c1C=C)=C\c1[n-]c(c(CCC(=O)O)c1C)/C=c1\[n-]c(c(C)c1CCC(=O)O)=C2.[Sn+4] [SnPP, tin protoporphyrin, reference compound]
Plasma LDH, Average ([1]; carrier 4.43): 4.51 Absorbance U LDH/ml
Plasma LDH ([1]; individual subjects): 5.00 Absorbance U LDH/ml and 3.23 Absorbance U LDH/ml and 4.54 Absorbance U LDH/ml and 5.29 Absorbance U LDH/ml
Kidney mRNA: HO-1 (HO-1 [2]; 4 h after Rx, control 0.61): 4.38 ± 0.28
Kidney HO-1 protein (HO-1 [2]; 4 h after Rx, control 13.3): 22.9 ± 2.6
Kidney mRNA cortex: HO-1 (HO-1 [2]; 18 h after Rx, control 0.61): 0.63 ± 0.06
Kidney protein: HO-1 (HO-1 [2]; 18 h after Rx, control 13.3): 18 ± 2
Kidney mRNA: Haptoglobin (haptoglobin [3]; 4 h after Rx, control 0.20): 0.19 ± 0.01
Kidney protein: Haptoglobin (haptoglobin [3]; 4 h after Rx, control 7.9): 13.1 ± 1.3
Kidney mRNA cortex: Haptoglobin (haptoglobin [3]; 18 h after Rx, control 0.20): 0.23 ± 0.08
Kidney protein: Haptoglobin (haptoglobin [3]; 18 h after Rx, control 10.3): 53.5 ± 17.2
Kidney mRNA: IL-10 (IL-10 [4]; 4 h after Rx, control 0.56): 0.39 ± 0.15
Kidney protein: IL-10 (IL-10 [4]; 4 h after Rx): 550 ± 86
Kidney mRNA cortex: IL-10 (IL-10 [4]; 18 h after Rx, control 0.56): 0.18 ± 0.09
Kidney protein: IL-10 (IL-10 [4]; 18 h after Rx): 454 ± 51
Liver mRNA: HO-1 (HO-1 [5]; 4 h after Rx): 3.15 ± 0.25
Liver protein: HO-1 protein (HO-1 [5]; 4 h after Rx): 7.4 ± 0.7
Liver mRNA: HO-1 (HO-1 [5]; 18 h after Rx): 2.56 ± 0.21
Liver protein: HO-1 protein (HO-1 [5]; 18 h after Rx): 18 ± 2.5
Liver mRNA: Haptoglobin (haptoglobin [6]; 4 h after Rx): 0.32 ± 0.02
Liver protein: Haptoglobin (haptoglobin [6]; 4 h after Rx): 130.0 ± 8.9
Liver mRNA: Haptoglobin (haptoglobin [6]; 18 h after Rx): 0.65 ± 0.17
Liver protein: Haptoglobin (haptoglobin [6]; 18 h after Rx): 212.0 ± 63.6
Liver mRNA: IL-10 (IL-10 [7]; 4 h after Rx): 0.14 ± 0.1
Liver protein: IL-10 (IL-10 [7]; 4 h after Rx): 485 ± 47
Liver mRNA: IL-10 (IL-10 [7]; 18 h after Rx): 0.05 ± 0.01
Liver protein: IL-10 (IL-10 [7]; 18 h after Rx): 8198 ± 725
Cardiac mRNA: HO-1 (HO-1 [8]; 4 h after Rx): 0.14 ± 0.01
Cardiac mRNA: HO-1 (HO-1 [8]; 18 h after Rx): 0.09 ± 0.03
Cardiac protein: HO-1 (HO-1 [8]; 18 h after Rx, control 1.5): 2.67 ± 0.4
Cardiac mRNA: Haptoglobin (haptoglobin [9]; 4 h after Rx): 0.52 ± 0.21
Cardiac protein: Haptoglobin (haptoglobin [9]; 4 h after Rx): 19.1 ± 2.1
Cardiac mRNA: Haptoglobin (haptoglobin [9]; 18 h after Rx): 0.59 ± 0.17
Cardiac protein: Haptoglobin (haptoglobin [9]; 18 h after Rx): 96.1 ± 36.2
Cardiac mRNA: IL-10 (IL-10 [10]; 4 h after Rx): 0.58 ± 0.16
Cardiac protein: IL-10 (IL-10 [10]; 4 h after Rx, control 8.1): 15.8 ± 10^
Cardiac mRNA: IL-10 (IL-10 [10]; 18 h after Rx): 0.53 ± 0.10
Cardiac protein: IL-10 (IL-10 [10]; 18 h after Rx, control 8): 23.4 ± 14^
Severity of maleate-induced renal injury (BUN, PCr) (Male CD-1 mice): Neither SnPP alone nor FeS alone significantly altered
half-life [11]: 2 to 4 h
Reduction of Mgb toxicity by SnPP addition [12]: ≤ 85%
